Assay results from patent US12440535B2, “IL-4 derived peptide fragments for use in the treatment of diabetic nephropathy” (SERODUS APS, priority 2022, dated 2025).
Entries after “also recorded” stand apart in the source; their conditions may differ. Where no end group is shown, it is not given here. [ ]: non-standard residue; d: D form. βAla = NCCC(=O)O

How the values were obtained:
[1] = target: T1, type II IL-4R (Homo sapiens, UniProt P24394); conditions: Klementiv 2013; cited from earlier work
T1 sequence (P24394 26-825): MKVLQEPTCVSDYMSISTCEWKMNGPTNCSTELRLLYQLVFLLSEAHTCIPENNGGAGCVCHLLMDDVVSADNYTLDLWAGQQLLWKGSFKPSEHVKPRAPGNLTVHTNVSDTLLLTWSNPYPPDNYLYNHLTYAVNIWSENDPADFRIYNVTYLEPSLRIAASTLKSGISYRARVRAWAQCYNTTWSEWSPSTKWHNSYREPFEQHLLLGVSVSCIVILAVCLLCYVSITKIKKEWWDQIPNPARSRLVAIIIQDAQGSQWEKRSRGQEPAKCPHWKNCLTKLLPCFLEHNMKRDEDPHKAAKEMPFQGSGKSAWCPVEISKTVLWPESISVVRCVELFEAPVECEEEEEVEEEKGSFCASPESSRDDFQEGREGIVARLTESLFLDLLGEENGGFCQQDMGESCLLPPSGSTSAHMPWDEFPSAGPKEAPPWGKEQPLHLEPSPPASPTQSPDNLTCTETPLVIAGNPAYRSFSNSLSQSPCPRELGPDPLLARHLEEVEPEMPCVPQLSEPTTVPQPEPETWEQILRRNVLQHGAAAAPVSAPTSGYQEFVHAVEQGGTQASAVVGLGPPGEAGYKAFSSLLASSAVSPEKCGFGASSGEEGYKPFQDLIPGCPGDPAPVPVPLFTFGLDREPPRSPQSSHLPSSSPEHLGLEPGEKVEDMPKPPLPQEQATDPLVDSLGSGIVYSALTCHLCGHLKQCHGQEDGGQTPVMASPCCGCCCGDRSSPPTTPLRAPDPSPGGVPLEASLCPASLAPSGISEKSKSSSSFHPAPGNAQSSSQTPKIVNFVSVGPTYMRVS

[2] = tested on: IL-4 receptors; conditions: cited from earlier work
[3] = target: T2, type I IL-4R (Homo sapiens, UniProt P24394); conditions: Klementiv 2013; cited from earlier work
T2 sequence (P24394 26-825): T1 sequence (P24394 26-825)
T2 sequence (P31785 23-369 partner): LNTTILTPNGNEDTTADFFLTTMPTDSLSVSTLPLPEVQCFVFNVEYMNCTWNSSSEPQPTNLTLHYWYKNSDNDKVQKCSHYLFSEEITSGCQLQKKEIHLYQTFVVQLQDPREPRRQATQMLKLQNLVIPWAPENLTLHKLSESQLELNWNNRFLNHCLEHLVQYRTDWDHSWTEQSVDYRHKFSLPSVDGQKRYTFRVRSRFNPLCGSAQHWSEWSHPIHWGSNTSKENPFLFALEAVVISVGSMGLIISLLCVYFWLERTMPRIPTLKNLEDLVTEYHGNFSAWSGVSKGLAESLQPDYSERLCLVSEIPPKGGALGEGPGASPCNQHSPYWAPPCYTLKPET

[4] = tested on: macrophages; conditions: cited from earlier work
[5] = tested on: ReninAAV UNx db/db mice; assay: ReninAAV UNx db/db mice model of diabetic nephropathy, urine biomarkers; type: in vivo; conditions: 10 mg/kg subcutaneously once daily, compared to vehicle, spot urine at termination day 77
Procedure: 28 female mice (BKS.Cg-Dock7m+/+Lepradb/db BLKS, 5 weeks of age) were transferred to the Gubra Research animal unit. Throughout the habituation and study period, the animals were housed in a light-, temperature-, and humidity-controlled room with free access to food and water. All animal experiments were conducted in accordance with Gubra's bioethical guidelines, which are fully compliant with internationally accepted principles for the care and use of laboratory animals. The animals were group-housed until uni-nephrectomies, then single-housed.
The animals were terminated on day 77; blood was taken for later analysis, body weight was recorded, and spot urine was collected.
Compound A was provided by Phlogo ApS, Copenhagen, Denmark (10 mg/ml miliQ water diluted to the dose formulations). Compound A was provided as a dimeric peptide comprising two copies of the sequence AQFHRHKQLIRFLKRA (SEQ ID NO: 1). […]
Urine samples were stored at minus 80° C. until analysis. […] Urine albumin was measured using a commercial ELISA kit (Bethyl Laboratories, Inc.), according to the manufacturer's instructions, and urine creatinine was measured using a commercial kit (Roche Diagnostics) on the Cobas c 501 autoanalyzer, according to the manufacturer's instructions. Urinary KIM-1 was measured using a commercial ELISA kit (R&D Systems) according to the manufacturer's instructions.

Substance: AQFHRHKQLIRFLKRA [SEQ ID NO:1, IL-4 derived peptide, variant of AA71-AA86 of IL-4 with two amino acid substitutions]
- Mode of action on type II IL-4R [1]: antagonist
- Binding to the IL-4 receptors [2]: capable of binding to the IL-4 receptors
- Mode of action on type I IL-4R [3]: high affinity partial agonist
- Macrophage activation [4]: inhibiting macrophage activation

Substance: Compound A: dimer of SEQ ID NO:1 (AQFHRHKQLIRFLKRA), two copies connected via their C-terminal through a lysine-beta-alanine linker (AQFHRHKQLIRFLKRAK[βAla]; also: dimer of two copies joined at C-termini via lysine-beta-alanine linker, Rink amide)
- ACR (urinary albumin corrected for creatinine) [5]: significantly decreased; also recorded: significantly reduced
- KIM-1/CR (urinary KIM-1 corrected for creatinine) [5]: significantly decreased; also recorded: significantly reduced
